The text below walks through data of a melting point compilation (Tetko et al.; mined from patent text by program, amines drawn as free bases though some values may be those of a salt).

In general, melting point refers to the temperature, or range, at which the solid turns liquid.

Take `CN1c2ccccc2Sc2cn(C)c(=O)c(C#N)c21`: the melting point was in the range of 236 to 237 °C.

As to `COc1ccc(S(=O)(=O)C(CCCCOc2ccccc2)(Cc2cccnc2)C(=O)O)cc1` (stereo not drawn), the melting point lay in the range of 148 to 151 °C.

The compound `CCC(C)Nc1cc(N2CCc3cc(OC)cc(Cl)c32)nc(C)n1` (stereo not drawn) showed a melting point of 102 to 105 °C.

`COc1cc2ncnc(NS(=O)(=O)c3ccc(Br)cc3)c2cc1OC` yielded a melting point of 241 to 242 °C.

Compound `CON1C=C2N=NC3=C(N(CC(C)C)CC(C)=C3)N2C1` yielded a melting point of 144 to 145 °C.

With `CC(=O)Cc1ccc2c(c1)-c1[nH]c3ccc(C(F)(F)F)cc3c1CC(=O)N2`, the melting point is 295 to 297 °C.

`NCC1COc2cc(Cl)cc(-c3ccc(Cl)cc3C(F)(F)F)c2N1` (stereo not drawn) yielded a melting point of 95 °C.

`c1ccc(COc2ccc3c(ccn3Nc3ccncc3)c2)cc1`: the melting point was 143 to 145 °C.

Consider `CCOC(=O)COc1cccc(-c2nnc(Nc3cccc(Br)c3)s2)c1`, for which the melting point worked out at 175 °C.

As for `COc1ncccc1NC(=O)C1(O)CCCn2c1nc(-c1ccncn1)cc2=O` (racemic), the melting point was 208 to 210 °C.

`O=C1c2c(O)ccc(O)c2C(=O)c2c(NCCN3CCCCC3)ccc(NCCN3CCCCC3)c21` showed a melting point of 219 to 221 °C.

`CC1(C)CCC(C)(C)c2c(C(O)C#C[Si](C)(C)C)cc(-c3ccccc3)cc21` (stereo not drawn) registered a melting point of 145 °C.

Turning to `CC(=O)NC[C@H]1CN(c2ccc(N3CCC(n4cc(C(F)F)nn4)CC3)c(F)c2)C(=O)O1`, the melting point fell in the range of 186 to 188 °C.

Regarding `COCc1cc(Oc2ccc3c(C(=O)Nc4ccc(C)c(C(F)(F)F)c4)cccc3c2)ncn1`, the melting point is 188 °C.

`CCn1c(C=Cc2ccccc2)cnc1[N+](=O)[O-]` registered a melting point of 154 to 156 °C.

For `O=C(O)c1nc(-c2ccc(Cl)cc2Cl)[nH]c1C(=O)O`, the melting point came to 238 °C.

Compound `O=C1CCC(N2C(=O)c3ccccc3C2=O)C(=O)N1CO` (stereo not drawn) came in with a melting point of 165 °C.

The compound `COC(=O)C1=C(C)NC(C)=C(C(=O)OCC2CCCO2)C1c1cccc(F)c1` (stereo not drawn) had a melting point of 66 to 68 °C.

Take `CCCCc1oc2ccccc2c1C(=O)N(C)Cc1ccc(-c2ccc(OCC(=O)O)c(Br)c2)cc1`: the melting point lay in the range of 72 to 78 °C.

For `OC(CSC(=S)Nc1ccc(Cl)cn1)c1ccccc1` (stereo not drawn), the melting point was determined as 116 °C.

The compound `O=c1ccc(C(c2ccccc2)c2ccc(Cl)cc2)c[nH]1` (stereo not drawn) registered a melting point of 164 to 169 °C.

The compound `O=C(O)CCC(=NOCc1ccc(OCc2ccc3ccccc3n2)cc1)c1ccccc1` registered a melting point of 133 to 134 °C.

In turn, `COc1ccc(CCNC(=S)c2ccccc2C)cc1OC` registered a melting point of 94 to 95 °C.

Take `COCn1cnc(Cl)c1Cl`: the melting point was 41 to 44 °C.

`COc1cc(Nc2nc3cccc(-c4cncc5ccccc45)c3o2)cc(OC)c1OC` showed a melting point of 201 to 203 °C.

In the case of `CN(C)c1ccccc1CNC(=O)C1Cc2ccccc2N1S(=O)(=O)c1ccc(-c2cccc(C(F)(F)F)c2)cc1` (stereo not drawn), the melting point stood at 66 °C.

Turning to `COc1ccc(C=Cc2cc(OC)cc(OC)c2)cc1`, the melting point lay within 55 to 56 °C.

With `COc1cccc(CCC(=O)CCCCCC(=O)O)c1`, the melting point fell in the range of 41 to 43 °C.

`O=C1COC(=O)C1=Cc1ccc(C(=O)O)s1` returned a melting point of 255 to 268 °C.

`O=c1[nH]c2ccccc2cc1-c1csc(N(Cc2ccccc2)S(=O)(=O)c2ccccc2)n1` registered a melting point of 228 to 232 °C.

For `COC(=O)c1cccc2cc(-c3ccc(N)cc3)oc12`, the melting point was in the range of 158 to 161 °C.

For the compound `CC1CCC(N2c3ccccc3Oc3c(Cl)cccc32)=N1` (stereo not drawn), the melting point is 120 to 122 °C.

Compound `COc1ccc(CC(=O)Nc2cc(-c3c(-c4cccc(C)c4)nc4cccnn34)ccn2)cc1` returned a melting point of 213 to 214 °C.

As to `CN1CCCC(Nc2ccnc3cc(Cl)ccc23)C1` (racemic), the melting point lay in the range of 149 to 150 °C.

For `N#Cc1c(Cl)cc(Cn2nnc(C(N)=O)c2N)cc1Cl`, the melting point lay within 238 to 240 °C.

Compound `CCCCOC(=O)c1nc(Cl)c2cc(OC(C)C)ccc2c1O` returned a melting point of 60 to 62 °C.

The compound `COc1ccc(C=CC(=O)NNC(=O)C=Cc2ccc(OC)cc2)cc1` had a melting point of 288 °C.

`COc1ccc(CCC(=O)Nc2cc3c(c(C)c2C)OC(C)(C)C3c2ccc(C)cc2)cc1` (stereo not drawn) came in with a melting point of 149 to 150 °C.

Compound `CCCCc1nc(CO)c(C(=O)ON2C(=O)CCC2=O)n1Cc1ccc(-c2ccccc2C(=O)OC(C)(C)C)cc1` registered a melting point of 107 to 109 °C.

As for `CCOc1ccc(C2(C(=O)O)CC(F)(F)C2(F)F)cc1` (stereo not drawn), the melting point turned out to be 194 °C.

On to `O=c1n(CC2CO2)c(=O)n(CC2CO2)n1CC1CO1` (stereo not drawn), for which the melting point was in the range of 93 to 94 °C.

`CC(C)Cn1c(CNC(=O)OC(C)(C)C)c(-c2ccccc2)c2cc(OC(C)(C)C(=O)O)ccc2c1=O` yielded a melting point of 219 to 220 °C.

In the case of `COC(=O)CN(C)c1cccc(-c2ccc(Cl)cc2)n1`, the melting point came to 54 °C.

In turn, `COC(=O)CCc1cc2nc(Cl)ccc2n1S(=O)(=O)c1ccc2c(c1)CCN2C(C)=O` came in with a melting point of 66 °C.

Compound `O=c1c2c(F)cccc2nc2sccn12` yielded a melting point of 205 to 207 °C.

With `CC1CCC(C(C)C)C(OC(=O)C(O)c2ccccc2)C1` (single isomer, unassigned; (-)), the melting point fell in the range of 50 to 51 °C.

In turn, `CCCCCCCCSc1nc2ccccc2[nH]1` showed a melting point of 110 to 113 °C.

The compound `Fc1cc(F)c2c(c1)CC(n1cc[nH]c1=S)C2` (stereo not drawn) yielded a melting point of 185 to 186 °C.

`Cc1cc(S(=O)(=O)NCC(C)c2ccccc2)ccc1Cl` (stereo not drawn) yielded a melting point of 73 to 74 °C.

`O=C(O)c1ccc(Br)cc1C(=O)c1ccccc1` had a melting point of 185 to 187 °C.

Compound `COC(=O)c1ccc(NC(=O)C(=O)c2ccc3c(c2)C(C)(C)CCC3(C)C)cc1O` registered a melting point of 146 to 147 °C.

`CC(=O)NCc1ccc2c(c1)N(C1CCN(CCc3ccccc3F)CC1)CC2` came in with a melting point of 160 to 161 °C.

Regarding `CCCc1cc(OC)ccc1-c1noc2cc(OC)ccc12`, the melting point is 71 to 72 °C.

Consider `Nc1ncnc2c1c(-c1ccc(Oc3ccccc3)cc1)cn2CCN1C(=O)c2ccccc2C1=O`, for which the melting point was 111 to 112 °C.

The compound `CCN(CC)c1ccc(S(=O)(=O)N2CCCC2=S)cc1` showed a melting point of 183 to 184 °C.

In turn, `O=C(CNC(=O)OCc1ccccc1)Nc1nnc(SCc2ccccc2)s1` displayed a melting point of 200 to 202 °C.

Turning to `Cc1ccc(NC(=O)NCc2ccc3c(c2)C(=O)N(C2(C)CCC(=O)NC2=O)C3=O)cc1Cl` (stereo not drawn), the melting point lay within 232 to 234 °C.

For the compound `Cc1ncc2c(c1C(=O)O)COc1ccccc1C2=O`, the melting point is 216 to 218 °C.

The compound `Nc1ccc(Cc2nc3ccccc3o2)cc1` had a melting point of 105 to 106 °C.

The compound `COc1ccc(-c2ccc(Cl)cc2)cc1COc1cccc2cc(NS(=O)(=O)C(F)(F)F)ccc12` had a melting point of 155 to 157 °C.

On to `O=[S@@]1CCC(c2ccccc2)(c2ccccc2)[C@@H]2CNC[C@@H]21` (racemic), for which the melting point came to 192 °C.

As for `CC1CC(=O)NN=C1c1ccc(NC(=O)OCc2cccc(Cl)c2)cc1` (stereo not drawn), the melting point lay in the range of 165 to 166 °C.

As to `CC(C)(C)C(O)(CCCOc1ccccc1)Cn1cncn1` (stereo not drawn), the melting point turned out to be 106 °C.

With `CC(C)(C)C(=O)c1ccc(S(=O)(=O)C[N+](=O)[O-])s1`, the melting point was in the range of 98 to 99 °C.

For `O=S(=O)(O)c1ccc(NCc2ccc(Cl)cc2Cl)cc1`, the melting point is more than 275 °C.

For the compound `O=C1OC(=O)c2ncc([N+](=O)[O-])cc21`, the melting point is 85 to 91 °C.

For `CC(C)Cn1nc(-c2ccc(C(F)(F)F)cc2)cc(COS(C)(=O)=O)c1=O`, the melting point is 123 to 124 °C.

The compound `CC(=O)Nc1ccc(Nc2c([N+](=O)[O-])cc(C(=O)O)cc2S(=O)(=O)Nc2ccccc2NC(C)=O)cc1` showed a melting point of 252 to 253 °C.

In the case of `O=c1c2cc(F)c(N3CCCC3)cc2n(CCF)c(=O)n1O`, the melting point lay within 228 to 230 °C.

For `CN(C)c1nc(Br)cnc1NS(=O)(=O)c1cccc2c(N(C)C)cccc12`, the melting point was 180 to 182 °C.

For `CC1(C)[C@@H](CS(=O)(=O)c2ccc(S(C)(=O)=O)cc2)CC[C@@]1(C)NCC(=O)N1CCC[C@H]1C#N`, the melting point lay within 162 to 166 °C.

The compound `CC(C)(C)OC(=O)Nc1cc(N2CCC3(CC2)OCCO3)c(C#Cc2ccccc2)cc1[N+](=O)[O-]` showed a melting point of 179 to 180 °C.

With `C#CCOc1ccc(CC(=O)O)cc1[N+](=O)[O-]`, the melting point is 135 to 137 °C.

In turn, `Cc1ncn(-c2ccc(CNC(=O)c3nc4n(c(=O)c3OCc3ccccc3)CCOC4(C)C)c(F)c2)n1` came in with a melting point of 183 to 185 °C.

Compound `Cn1nnc(-c2ccc3c(ccn3-c3ccc(F)cc3)c2)n1` displayed a melting point of 131 to 133 °C.

For `COC(=O)CCCCCCNC(=O)C(CSC(C)=O)Cc1ccccc1` (stereo not drawn), the melting point lay in the range of 84 to 85 °C.

As for `CC(C)OC(=O)N=C1SCS1`, the melting point was 72 to 73 °C.

With `N#Cc1cnc2cnc(Cl)cc2c1Nc1cccc(Br)c1`, the melting point lay in the range of 220 to 223 °C.

Turning to `CCN(CC)CCCNC(=O)/C(=C/C=C/c1cc2ccccc2o1)OC`, the melting point came out at 79 °C.

In the case of `Cc1nn(C)c(CBr)c1Oc1cc(Cl)cc(C#N)c1`, the melting point was in the range of 76 to 78 °C.

`CN(C(=O)Nc1ccc(Cl)c(Cl)c1)C(Cl)C(Cl)(Cl)Cl` (stereo not drawn) registered a melting point of 132 to 140 °C.

As for `CC(C)C(=O)Nc1ccccc1C(F)(F)F`, the melting point is 114 °C.

Take `Cc1cn(C(C)(C)C(=O)N(C)C)nc1-c1ccccc1Br`: the melting point lay within 192 to 194 °C.

Compound `CCCCCCCCCCC(=O)C(=O)CCCCCCCCCC` gave a melting point of 68.5 to 69 °C.

For the compound `NC(=O)c1cccc2[nH]c(-c3ccc(O)cc3)nc12`, the melting point was in the range of 266 to 267 °C.

The compound `O=S(=O)(/C=C/c1ccc(F)cc1)Nc1ccc(Cl)cc1` had a melting point of 126 to 128 °C.

For the compound `CS(=O)(=O)Oc1cc(OS(C)(=O)=O)cc(OS(C)(=O)=O)c1`, the melting point lay in the range of 145 to 149 °C.

As to `O=C1c2cc3nnn(Cc4nc5ccccc5s4)c(=O)c3cc2OC2CCCN12` (stereo not drawn), the melting point lay within 224 to 227 °C.
